From ChEMBL document CHEMBL1148856, “Thiazolone-acylsulfonamides as novel HCV NS5B polymerase allosteric inhibitors: convergence of structure-based drug design and X-ray crystallographic study” (Bioorg Med Chem Lett, 2007) come the findings set out here.

By IC50 is commonly meant the concentration that gives 50% inhibition. A high value points to weaker potency.

This assay is described as follows: Inhibition of HCV BK NS5B polymerase. More on the design: species or system Hepacivirus hominis.
The compound `CCc1ccc(/C=C2\SC(N[C@H](C(=O)NS(=O)(=O)c3ccc(C)cc3)c3ccc(F)cc3)=NC2=O)o1` (stereo in doubt) gave an IC50 of 9.3 µM.

`CCc1ccc(/C=C2\SC(N[C@H](C(=O)NS(=O)(=O)c3cccc(C(=O)OC)c3)c3ccc(F)cc3)=NC2=O)o1` (stereo in doubt) gave a half-inhibitory concentration (IC50) of 14 µM. Compared with the last compound, the IC50 is about 1.5-fold higher.

For the compound `CCc1ccc(/C=C2\SC(N[C@H](C(=O)NS(=O)(=O)c3cccc(C(=O)O)c3)c3ccc(F)cc3)=NC2=O)o1` (stereo in doubt), it took 12 µM to reach half-maximal inhibition (IC50). This IC50 and that of the compound before are within 1.5-fold of each other.

`CCc1ccc(/C=C2\SC(N[C@H](C(=O)NS(=O)(=O)c3ccc([N+](=O)[O-])cc3)c3ccc(Cl)cc3Cl)=NC2=O)o1` (stereo in doubt) yielded an IC50 of 6.6 µM.

Compound `CCc1ccc(/C=C2\SC(N[C@H](C(=O)NS(=O)(=O)c3cccc([N+](=O)[O-])c3)c3ccc(F)cc3)=NC2=O)o1` (stereo in doubt) registered an IC50 of 15 µM.

Regarding `CCc1ccc(/C=C2\SC(N[C@H](CS(=O)(=O)NC(=O)c3ccccc3)c3ccccc3)=NC2=O)o1` (stereo in doubt), inhibition was half-maximal at 16 µM (IC50). The IC50 values of the last two compounds are within 1.5-fold of each other.
